This test has as its target T1, β-Galactosidase from Aspergillus oryzae (Aspergillus oryzae, UniProt Q2UCU3).
T1 construct: gene lacA; commercial secreted enzyme (Sigma-Aldrich), no catalogue number
T1 sequence (Q2UCU3 19-1005): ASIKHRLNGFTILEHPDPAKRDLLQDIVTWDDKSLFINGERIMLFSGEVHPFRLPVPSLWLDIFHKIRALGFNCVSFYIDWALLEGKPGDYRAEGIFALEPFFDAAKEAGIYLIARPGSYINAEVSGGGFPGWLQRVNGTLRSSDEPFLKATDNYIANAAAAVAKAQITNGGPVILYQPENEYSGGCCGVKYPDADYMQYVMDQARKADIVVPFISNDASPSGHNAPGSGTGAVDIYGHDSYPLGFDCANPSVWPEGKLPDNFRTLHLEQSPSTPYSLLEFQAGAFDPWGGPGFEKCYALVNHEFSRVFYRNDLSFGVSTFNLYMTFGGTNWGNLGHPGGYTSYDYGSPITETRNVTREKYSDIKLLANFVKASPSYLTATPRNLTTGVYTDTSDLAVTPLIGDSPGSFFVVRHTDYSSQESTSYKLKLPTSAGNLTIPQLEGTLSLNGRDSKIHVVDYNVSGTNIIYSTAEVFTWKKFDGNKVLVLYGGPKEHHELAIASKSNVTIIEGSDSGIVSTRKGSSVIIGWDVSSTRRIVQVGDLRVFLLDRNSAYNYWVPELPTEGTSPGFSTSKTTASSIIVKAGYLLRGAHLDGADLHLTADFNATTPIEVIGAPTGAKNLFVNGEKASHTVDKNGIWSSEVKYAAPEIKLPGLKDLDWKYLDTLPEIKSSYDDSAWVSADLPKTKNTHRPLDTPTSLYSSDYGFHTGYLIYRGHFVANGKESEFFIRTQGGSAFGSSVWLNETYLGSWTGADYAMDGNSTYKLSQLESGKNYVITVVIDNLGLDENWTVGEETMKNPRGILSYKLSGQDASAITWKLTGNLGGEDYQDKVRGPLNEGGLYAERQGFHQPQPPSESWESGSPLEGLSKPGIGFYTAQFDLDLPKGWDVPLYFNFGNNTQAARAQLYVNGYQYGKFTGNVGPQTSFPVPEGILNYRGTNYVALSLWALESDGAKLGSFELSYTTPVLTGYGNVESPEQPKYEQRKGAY
Put plainly: 2-nitrophenyl beta-D-galactopyranoside hydrolysis, absorbance […] nm. It is filed as biochemical. Conditions: read-out: β-Galactosidase inhibition / IC50 (mg/mL) (converted).

The structures appear in SMILES notation.

On to `O=c1c(O)c(-c2ccc(O)c(O)c2)oc2cc(O)cc(O)c12` [Quercetin], for which the IC50 was 817 µM.

(Values after paper PMC6466937, “Evaluation of In Vitro Antioxidant and Antidiabetic Activities of Aristolochia longa Extracts” (Evidence-based Complementary and Alternative Medicine : eCAM, 2019).)
